Assay results published in EP2236511A2, “LIGANDS OF ALPHA-ADRENOCEPTORS AND OF DOPAMINE, HISTAMINE, IMIDAZOLINE AND SEROTONIN RECEPTORS AND THE USE THEREOF” (priority 2007, dated 2009).
Structures can show the parent of a compound that is named as a salt. Where two headings read alike, the source gives them in different places.

Legend:
[1] = molecular target: T1, recombinant human 5-HT6 receptor (Homo sapiens, UniProt P50406); experiment: Radioligand binding to serotonin receptor 5-HT6 ([3H] Lysergic acid diethylamide, HeLa membranes); details: for 5-HT6 % inhibition: 10 µM ligand
T1 construct: expressed in transfected cells; host or cells: HeLa
T1 sequence (P50406 whole entry): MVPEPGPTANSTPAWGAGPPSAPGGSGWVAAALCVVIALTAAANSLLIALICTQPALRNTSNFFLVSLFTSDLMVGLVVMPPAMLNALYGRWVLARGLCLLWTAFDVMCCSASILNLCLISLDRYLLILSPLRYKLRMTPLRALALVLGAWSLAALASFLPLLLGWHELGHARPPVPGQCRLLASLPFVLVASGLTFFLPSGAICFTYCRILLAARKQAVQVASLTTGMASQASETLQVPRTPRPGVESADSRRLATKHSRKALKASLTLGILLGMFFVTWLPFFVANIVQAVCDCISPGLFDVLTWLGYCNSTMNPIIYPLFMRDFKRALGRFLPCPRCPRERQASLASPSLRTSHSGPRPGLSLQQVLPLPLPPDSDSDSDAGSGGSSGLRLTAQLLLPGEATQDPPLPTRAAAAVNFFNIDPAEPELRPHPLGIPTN
Excerpt: Mol Pharmacol. 43:320-327, 1993]. […] Methiothepin is used as positive control.

recombinant human 5-HT1A = molecular target: T2, recombinant human 5-HT1A (Homo sapiens, UniProt P08908); experiment: Radioligand binding to serotonin receptor 5-HT1A ([3H] 8-OH-DPAT, CHO membranes); details: for 5-HT1A % inhibition: 10 µM ligand; for inhibition at 10 µM: read-out: 5-HT1A % inhibition
T2 construct: expressed in transfected cells; host or cells: CHO
T2 sequence (P08908 1-422): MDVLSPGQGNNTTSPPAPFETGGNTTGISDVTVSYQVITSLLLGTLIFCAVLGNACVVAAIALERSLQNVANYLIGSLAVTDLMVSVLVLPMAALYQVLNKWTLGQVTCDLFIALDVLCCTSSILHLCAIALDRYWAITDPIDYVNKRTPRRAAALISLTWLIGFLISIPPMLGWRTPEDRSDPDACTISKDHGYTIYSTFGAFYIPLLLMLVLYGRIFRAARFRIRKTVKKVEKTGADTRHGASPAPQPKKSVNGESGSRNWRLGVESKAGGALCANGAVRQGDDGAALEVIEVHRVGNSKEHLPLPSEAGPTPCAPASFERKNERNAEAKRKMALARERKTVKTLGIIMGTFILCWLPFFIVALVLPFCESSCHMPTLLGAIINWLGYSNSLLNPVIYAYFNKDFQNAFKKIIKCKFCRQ
Excerpt: J Pharmacol Exp Ther. 306(1): 301-309, 2003]. […] Metergoline is used as positive control.

human 5-HT7 receptor = molecular target: T3, human 5-HT7 receptor (Homo sapiens, UniProt P34969); experiment: Radioligand binding to serotonin receptor 5-HT7 ([3H] Lysergic acid diethylamide, CHO membranes); details: for 5-HT7 % inhibition: 10 µM ligand; for inhibition at 10 µM: read-out: 5-HT7 % inhibition
T3 construct: expressed in transfected cells; host or cells: CHO
T3 sequence (P34969 whole entry): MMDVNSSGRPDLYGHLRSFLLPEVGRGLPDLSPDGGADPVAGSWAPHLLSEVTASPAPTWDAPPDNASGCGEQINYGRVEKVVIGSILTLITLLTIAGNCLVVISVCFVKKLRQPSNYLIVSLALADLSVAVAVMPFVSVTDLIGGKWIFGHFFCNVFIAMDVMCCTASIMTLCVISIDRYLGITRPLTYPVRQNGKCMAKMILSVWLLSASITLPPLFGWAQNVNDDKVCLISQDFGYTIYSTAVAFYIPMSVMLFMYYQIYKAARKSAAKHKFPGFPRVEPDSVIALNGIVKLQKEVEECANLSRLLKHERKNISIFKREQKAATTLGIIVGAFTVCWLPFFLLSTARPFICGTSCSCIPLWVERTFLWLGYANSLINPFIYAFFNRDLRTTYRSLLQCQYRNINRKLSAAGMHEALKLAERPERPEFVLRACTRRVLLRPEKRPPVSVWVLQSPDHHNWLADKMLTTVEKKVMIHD
Excerpt: For this purpose sDNA of human 5-HT7 receptor is expressed in CHO cells as it was described in [Shen Y, Monsma FJ Jr, Metcalf MA, Jose PA, Hamblin MW, and Sibley DR. […] J. Biol. Chem. 1993, 268, 18200 - 18204]. […] J. Pharmacol. Exp. Ther. 1994, 268:1403-1410]. […] Methiothepin is used as positive control.

[2] = molecular target: T4, serotonin receptor 5-HT1B (Rattus norvegicus, UniProt P28564); experiment: Radioligand binding to serotonin receptor 5-HT1B ([125I] cyanopindolol, rat brain cortex membranes); details: for 5-HT1B % inhibition: 10 µM ligand; for inhibition at 10 µM: read-out: 5-HT1B % inhibition
T4 construct: membrane species are prepared from rat brains (Wistar) by homogenization of species of rat brain-cortices; from tissue; host or cells: rat (Wistar) brain cortex
T4 sequence (P28564 whole entry): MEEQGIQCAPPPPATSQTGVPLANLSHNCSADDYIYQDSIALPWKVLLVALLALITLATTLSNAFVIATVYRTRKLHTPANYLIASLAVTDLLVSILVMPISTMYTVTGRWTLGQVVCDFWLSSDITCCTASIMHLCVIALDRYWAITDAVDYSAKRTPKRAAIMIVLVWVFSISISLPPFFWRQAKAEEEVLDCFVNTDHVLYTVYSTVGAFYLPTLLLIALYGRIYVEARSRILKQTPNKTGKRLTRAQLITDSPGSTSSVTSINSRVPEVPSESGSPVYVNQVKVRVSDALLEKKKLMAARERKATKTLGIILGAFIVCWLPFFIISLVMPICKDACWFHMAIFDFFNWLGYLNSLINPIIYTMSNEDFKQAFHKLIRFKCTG
Excerpt: Serotonin is used as positive control.

[3] = molecular target: T5, recombinant human 5-HT2A receptor (Homo sapiens, UniProt P28223); experiment: Radioligand binding to serotonin receptor 5-HT2A ([3H] Ketanserin, CHO-K1 membranes); details: 10 µM ligand
T5 construct: expressed in transfected cells; host or cells: CHO-K1
T5 sequence (P28223 whole entry): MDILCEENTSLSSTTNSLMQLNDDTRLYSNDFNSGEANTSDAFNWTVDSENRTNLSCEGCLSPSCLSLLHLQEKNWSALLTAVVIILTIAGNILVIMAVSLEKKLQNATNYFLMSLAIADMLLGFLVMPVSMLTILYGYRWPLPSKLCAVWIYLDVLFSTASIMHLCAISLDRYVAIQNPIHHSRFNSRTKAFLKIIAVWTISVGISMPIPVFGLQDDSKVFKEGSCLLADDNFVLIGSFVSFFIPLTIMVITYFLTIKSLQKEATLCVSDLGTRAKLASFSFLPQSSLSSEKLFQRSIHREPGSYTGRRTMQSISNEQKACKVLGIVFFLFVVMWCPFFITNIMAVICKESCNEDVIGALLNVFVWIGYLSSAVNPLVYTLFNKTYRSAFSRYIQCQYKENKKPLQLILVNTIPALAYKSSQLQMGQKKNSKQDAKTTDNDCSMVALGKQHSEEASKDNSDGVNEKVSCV
Excerpt: 9-C. […] J Neurochem. […] Ketanserin is used as positive control.

[4] = molecular target: T6, recombinant human 5-HT2C receptor (Homo sapiens, UniProt P28335); experiment: Radioligand binding to serotonin receptor 5-HT2C ([3H] Mesulergine, CHO-K1 membranes)
T6 construct: expressed in transfected cells; host or cells: CHO-K1
T6 sequence (P28335 33-458): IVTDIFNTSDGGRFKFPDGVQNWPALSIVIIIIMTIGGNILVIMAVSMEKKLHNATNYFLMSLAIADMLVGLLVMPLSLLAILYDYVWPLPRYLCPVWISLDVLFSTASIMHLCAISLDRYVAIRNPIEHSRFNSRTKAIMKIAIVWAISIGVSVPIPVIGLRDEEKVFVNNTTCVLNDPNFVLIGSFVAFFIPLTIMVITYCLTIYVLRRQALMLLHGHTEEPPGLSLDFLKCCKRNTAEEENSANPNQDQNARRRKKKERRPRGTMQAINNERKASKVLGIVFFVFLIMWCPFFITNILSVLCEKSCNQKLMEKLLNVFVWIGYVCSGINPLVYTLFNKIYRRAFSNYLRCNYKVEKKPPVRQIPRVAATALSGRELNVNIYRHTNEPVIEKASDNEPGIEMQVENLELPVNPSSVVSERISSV
Excerpt: J Neurochem. 69: 1449 - 1458, 1997]. […] SB242084 is used as positive control.

[5] = molecular target: T7, recombinant human 5-HT2B receptor (Homo sapiens, UniProt P41595); experiment: Radioligand binding to serotonin receptor 5-HT2B ([3H] Lysergic acid diethylamide, CHO-K1 membranes)
T7 construct: expressed in transfected cells; host or cells: CHO-K1
T7 sequence (P41595 whole entry): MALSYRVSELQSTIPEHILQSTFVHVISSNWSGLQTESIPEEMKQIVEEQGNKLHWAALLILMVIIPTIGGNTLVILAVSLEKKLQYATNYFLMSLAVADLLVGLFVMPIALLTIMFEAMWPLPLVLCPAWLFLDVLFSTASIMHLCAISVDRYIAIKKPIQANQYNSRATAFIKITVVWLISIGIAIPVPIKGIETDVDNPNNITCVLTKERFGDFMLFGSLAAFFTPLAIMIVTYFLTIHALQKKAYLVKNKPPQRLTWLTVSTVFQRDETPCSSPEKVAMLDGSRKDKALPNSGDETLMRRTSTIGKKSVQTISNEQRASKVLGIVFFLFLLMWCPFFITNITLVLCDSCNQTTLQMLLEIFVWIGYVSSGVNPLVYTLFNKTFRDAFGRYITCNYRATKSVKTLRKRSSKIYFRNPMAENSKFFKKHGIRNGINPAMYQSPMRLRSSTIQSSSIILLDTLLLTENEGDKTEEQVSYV
Method: For this purpose membrane species are prepared from CHO-K1 cells comprising recombinant human 5-HT2B receptor by homogenization of recombinant cells in glass homogenizer with the subsequent separation of plasmatic membranes from cell nuclei, mitochondrias and cell wreckages by differential centrifugation. […] After incubation the samples are filtered in vacuo on glass-microfiber filters G/F (Millipor, USA), filters are washed three times with cold solution of medium and radioactivity is measured by scintillation counter MicroBeta 340 (Perkin Elmer, USA). […] Ketanserin is used as positive control. The tested compounds' binding to the receptor is determined by their ability to displace the radioligand and is expressed in percent of displacement (%I). Values of %I are calculated according to the following equation: %I = (TA-CA)/(TA-NA)*100, [formula] wherein: TA - is the overall radioactivity in the presence of radioligand only, CA - is the radioactivity in the presence of radioligand and tested compound and NA - is the radioactivity in the presence of radioligand and Serotonin (10 µM).

[6] = read-out: 5-HT2B % inhibition, 10 µM ligand

`CN1CCc2c(c3cc(F)ccc3n2C#Cc2ccccc2)C1` [1.1(2)] gave a 5-HT6 % inhibition [1] of 95%, a 5-HT1A % inhibition (recombinant human 5-HT1A) of 30% and a 5-HT7 % inhibition (human 5-HT7 receptor) of 59%. The 5-HT1B % inhibition [2] was 6% and the 5-HT2A % inhibition [3] was 99%.
`Cc1ccc2c(c1)c1c(n2C#Cc2ccccc2)CCN(C)C1` [1.1(4)] showed a 5-HT2C % inhibition ([4]; 10 µM ligand) of 99%, a 5-HT2B % inhibition ([5]; 10 µM ligand) of 86% and a 5-HT6 % inhibition [1] of 97%. The 5-HT1A % inhibition (recombinant human 5-HT1A) was 38%, the 5-HT7 % inhibition (human 5-HT7 receptor) was 93% and the 5-HT1B % inhibition [2] was 26%. The 5-HT2A % inhibition [3] was 99%.
`CN1CCc2c(c3cc(C(F)(F)F)ccc3n2CCc2ccccc2)C1` [1.1.2(1-7)·HCl, 2-methyl-8-trifluoromethyl-5-phenethyl-1,2,3,4-tetrahydro-1H-pyrido[4,3-b]indole] was tested, and the inhibition at 10 µM ([4]; read-out: 5-HT2C % inhibition) was 92%, the inhibition at 10 µM ([5]; read-out: 5-HT2B % inhibition) was 89% and the inhibition at 10 µM (human 5-HT7 receptor) was 94%. For the same compound, the inhibition at 10 µM [2] was 13% and the inhibition at 10 µM [3] was 91%.
With `CN1CCc2c(c3cc(F)ccc3n2CC(O)c2ccccc2)C1` (stereo not shown) [1.1.2(1-9)] the 5-HT6 % inhibition [1] was 89%, the 5-HT1A % inhibition (recombinant human 5-HT1A) was -2% and the 5-HT7 % inhibition (human 5-HT7 receptor) was 84%. The 5-HT1B % inhibition [2] was 5% and the 5-HT2A % inhibition [3] was 97%.
For `Cc1ccc2c(c1)c1c(n2CC(O)c2ccccc2)CCN(C)C1` (stereo not shown) [1.1.2(1-10), 2,8-dimethyl-5-[(2-phenyl-2-hydroxy)ethyl]-1,2,3,4-tetrahydro-1H-pyrido[4,3-b]indole], the 5-HT6 % inhibition [1] was 102%, the 5-HT1A % inhibition (recombinant human 5-HT1A) was 24% and the 5-HT7 % inhibition (human 5-HT7 receptor) was 96%. The 5-HT1B % inhibition [2] was 41% and the 5-HT2A % inhibition [3] was 97%.
For `COc1ccc(CCn2c3c(c4cc(C)ccc42)CN(C)CC3)cc1` [1.1.2(1-14)·HCl], the inhibition at 10 µM ([4]; read-out: 5-HT2C % inhibition) was 97%, the inhibition at 10 µM ([5]; read-out: 5-HT2B % inhibition) was 97% and the inhibition at 10 µM ([1]; read-out: 5-HT6 % inhibition) was 108%. It also gave an inhibition at 10 µM (recombinant human 5-HT1A) of 57%, an inhibition at 10 µM (human 5-HT7 receptor) of 100% and an inhibition at 10 µM [2] of 52%.
Work on `Cc1ccc2c(c1)c1c(n2CCc2ccc(F)cc2)CCN(C)C1` [1.1.2(1-16)·HCl] yielded an inhibition at 10 µM ([4]; read-out: 5-HT2C % inhibition) of 99%, an inhibition at 10 µM ([5]; read-out: 5-HT2B % inhibition) of 91% and an inhibition at 10 µM ([1]; read-out: 5-HT6 % inhibition) of 103%. The inhibition at 10 µM (recombinant human 5-HT1A) was 37%, the inhibition at 10 µM (human 5-HT7 receptor) was 95% and the inhibition at 10 µM [2] was 36%. It also gave an inhibition at 10 µM [3] of 99%.
Compound `Cc1ccc2c(c1)c1c(n2CCc2ccc(C(F)(F)F)cc2)CCN(C)C1` [1.1.2(1-18)·HCl] has an inhibition at 10 µM ([4]; read-out: 5-HT2C % inhibition) of 99%, an inhibition at 10 µM [5, 6] of 87% and an inhibition at 10 µM ([1]; read-out: 5-HT6 % inhibition) of 94%. It also gave an inhibition at 10 µM (recombinant human 5-HT1A) of 53%, an inhibition at 10 µM (human 5-HT7 receptor) of 103% and an inhibition at 10 µM [2] of 45%. It also gave an inhibition at 10 µM [3] of 100%.
With `Cc1ccc2c(c1)c1c(n2CCc2ccccc2)CCCN(C)C1` [1.2.2(1-2)·HCl] the inhibition at 10 µM [5, 6] was 84%, the inhibition at 10 µM (recombinant human 5-HT1A) was 20% and the inhibition at 10 µM (human 5-HT7 receptor) was 97%. The inhibition at 10 µM [3] was 89%.
For `Cc1ccc(CCn2c3c(c4cc(F)ccc42)CN(C)CCC3)cn1` [1.2.2(4-2)·2HCl], the inhibition at 1 µM ([4]; read-out: 5-HT2C % inhibition) was 78%, the inhibition at 1 µM ([1]; read-out: 5-HT6 % inhibition) was 84% and the inhibition at 10 µM [2] was 60%.
`Cc1ccc2c(c1)c1c(n2CCCc2ccccc2)CCN(C)C1` [1.3.3(2)·HCl] gave an inhibition at 10 µM ([4]; read-out: 5-HT2C % inhibition) of 98%, an inhibition at 10 µM ([5]; read-out: 5-HT2B % inhibition) of 95% and an inhibition at 10 µM ([1]; read-out: 5-HT6 % inhibition) of 103%. For the same compound, the inhibition at 10 µM [2] was 31% and the inhibition at 10 µM [3] was 99%.
For `CN1CCc2c(c3cc(F)ccc3n2CCCc2ccccc2)C1` [1.3.3(8)·HCl], the inhibition at 10 µM ([4]; read-out: 5-HT2C % inhibition) was 97%, the inhibition at 10 µM ([5]; read-out: 5-HT2B % inhibition) was 96% and the inhibition at 10 µM ([1]; read-out: 5-HT6 % inhibition) was 93%. The inhibition at 10 µM (recombinant human 5-HT1A) was -4%, the inhibition at 10 µM (human 5-HT7 receptor) was 83% and the inhibition at 10 µM [2] was 12%. For the same compound, the inhibition at 10 µM [3] was 97%.
In the case of `CN1CCc2c(c3cc(F)ccc3n2Cc2ccccc2)C1` [1.9(3)·HCl], the inhibition at 10 µM ([4]; read-out: 5-HT2C % inhibition) is reported as 100%, the inhibition at 10 µM ([5]; read-out: 5-HT2B % inhibition) is reported as 95% and the inhibition at 10 µM ([1]; read-out: 5-HT6 % inhibition) is reported as 89%. The inhibition at 10 µM (human 5-HT7 receptor) was 81%, the inhibition at 10 µM [2] was 12% and the inhibition at 10 µM [3] was 97%.
With `Cc1ccc2c(c1)c1c(n2Cc2ccccc2)CCCN(C)C1` [1.10(4)·HCl] the inhibition at 10 µM ([4]; read-out: 5-HT2C % inhibition) was 98%, the inhibition at 10 µM ([5]; read-out: 5-HT2B % inhibition) was 70% and the inhibition at 10 µM ([1]; read-out: 5-HT6 % inhibition) was 69%. The inhibition at 10 µM (recombinant human 5-HT1A) was 19%, the inhibition at 10 µM (human 5-HT7 receptor) was 75% and the inhibition at 10 µM [2] was 31%. For the same compound, the inhibition at 10 µM [3] was 91%.
